Measurements: patent publication US11179348B2, “Combination comprising pterostilbene for the treatment of cancer” (FUNDACIÓN UNIVERSIDAD CATÓLICA DE VALENCIA SAN VICENTE …, priority 2015, dated 2021)

Experiments:
Set-up in all cases: species or system human
MCF-7 cells = experiment: GSH levels and glutathione- and oxidative stress-related enzyme activities in MCF-7 cells growing in vivo; conditions: MCF-7, in vivo Pter, day 28
Experimental: (§1) To measure enzyme activity, isolated tumor cells were homogenized in 0.1 M phosphate buffer (pH 7.2) at 4° C. GCL and GSS activities were measured as described previously (Obrador, E. et al. Hepatology 35, 74-81 (2002)). GPX (selenium dependent) activity was measured as described by Flohé and Gunzler (Flohe, L. & Gunzler, W. A. Methods Enzymol 105, 114-121 (1984)) using H2O2 as a substrate. GSR activity was determined as described by Akerboom and Sies (Akerboom, T. P. et al, Bull Eur Physiopathol Respir 17 Suppl, 221-227 (1981)). GGT activity was measured as described previously (Obrador, E. et al. Hepatology 35, 74-81 (2002)). GST activity was measured using an assay kit from Sigma. TXNRD activity, defined by the concentration of sodium-lipoate (disulfide) reduced to dehydrolipoate (dithiol) per milligram protein, was measured as previously described (Javvadi, P. et al. Cancer Res 70, 1941-1950 (2010)). SOD activity was measured as described by Flohé and Otting (Flohe, L. & Otting, F. Methods Enzymol 105, 93-104 (1984).) using 2 mM cyanide in the assay medium to distinguish mangano-type enzyme (SOD2) from the cuprozinc type (SOD1). CAT activity was analyzed as described by Aebi (Aebi, H. Methods Enzymol 105, 121-126 (1984)). NOX activity was measured by chemiluminescence following the methodology of Wind et al. (Wind, S. et al. Comparative pharmacology of chemically distinct NADPH oxidase inhibitors. Br J Pharmacol 161, 885-898 (2010)). Protein concentration was determined with the Pierce BCA protein assay (Fisher Scientific, Waltham, Mass.).
(§2) GSH, GSSG, NADP^+ and NADPH Determination.
(§3) GSH and GSSG were determined, following procedures previously described (Obrador, E. et al. PLoS One 9, e96466 (2014)), by LC/MS using the same equipment described above for pterostilbene determination. Cell processing was performed according to published methodology, where rapid N-ethylmaleimide derivatization was used to prevent GSH auto-oxidation (Asensi, M. et al. Anal Biochem 217, 323-328 (1994)). NADP^+ and NADPH were quantitated using an assay kit from Sigma (St. Louis, Mo.).
Isolation of Tumor Cells from Mouse Xenografts Using Enzymatic Digestion and a double Ficoll gradient.
To maximize the amount of isolated cells, avoiding the use of RFP-transfected cells and subsequent laser microdissection, an alternative methodology was set up. To maximize cell yield and viability the following combination of enzymes was used: collagenase III (200 U/ml; Sigma-Aldrich), DNase I (200 U/ml; Sigma-Aldrich) and trypsin (5 mg/ml; Invitrogen), and a non-enzymatic dissociation buffer (NEDB, Invitrogen). Briefly, mice were killed, and tumors were removed (avoiding skin, muscle and fat) into cold culture media and processed immediately. The tumors were minced into 1-3 mm fragments, which were then incubated with the dissociation solution (see above) for 30 min at 37° C. The tumor fragments were mixed up and down every 10 min using a […] micropipette with a tip cut to a diameter adapted to tissue fragment size. After each incubation period, the fragments were filtered through a […] nylon mesh cell strainer (BD Biosciences, San Diego, Calif., USA). The released cells were centrifuged at 1200 r.p.m. for 2 min and stored in cold CO2-independent medium with 30% FCS at […]. Fresh dissociation solution was added to the remaining tissue fragments for 30 min. Dissociation was stopped when no additional cells were released. The fragments were pushed through a sieve and all cells from all incubation periods were pooled and counted.
The dissociated cells were layered onto a double Ficoll gradient (Histopaque; Sigma-Aldrich; densities 1.077 and 1.119) and spun at 700 g for 30 min at room temperature. Cells removed from both interfaces were pooled and washed two times in CO2-independent medium and stored at 4° C. Debris and red blood cell elimination was improved with the dual-density gradient. […]

[1] = system: LNCaP prostate adenocarcinoma; experiment: In vivo growth of LNCaP prostate cancer xenografts; conditions: day 49
[2] = system: AsPC-1 pancreatic cancer cells; experiment: Nrf2- and redox state-related enzyme activities and metabolites in AsPC-1 cells growing in vivo; conditions: AsPC-1, in vivo +Pter, day 28
Experimental: as §1, with “Mass.). […]” for “Mass.).”
as §2, §3

Q: How did the CAT (MCF-7 cells) turn out when `COc1cc(/C=C/c2ccc(O)cc2)cc(OC)c1` [Pter, trans-3,5-dimethoxy-4′-hydroxystilbene] was run?
A: 0.5 ± 0.2 mU/10^6 cells

Q: What about the GCL (MCF-7 cells) of the same molecule?
A: 166 ± 34 mU/10^6 cells

Q: And the GSH (MCF-7 cells)?
A: 30.6 ± 4.2 nmol/10^6 cells

Q: What about the GSS (MCF-7 cells) of the same molecule?
A: 25.2 ± 5.6 mU/10^6 cells

Q: And the GSSG (MCF-7 cells)?
A: 0.3 ± 0.1 nmol/10^6 cells

Q: And the SOD1 (MCF-7 cells)?
A: 1.0 ± 0.08 U/10^6 cells

Q: And the SOD2 (MCF-7 cells)?
A: 0.12 ± 0.05 U/10^6 cells

Q: What about the Tumor vol. [1] of the same molecule?
A: 757 ± 194 mm^3

Q: And the CAT [2]?
A: 1.2 ± 0.3 mU/10^6 cells

Q: And the G6PDH [2]?
A: 317 ± 84 mU/10^6 cells

Q: And the GCL [2]?
A: 85 ± 27 mU/10^6 cells

Q: What about the GGT [2] of the same molecule?
A: 27.5 ± 7.4 mU/10^6 cells

Q: What about the GPX [2] of the same molecule?
A: 15.0 ± 2.6 mU/10^6 cells

Q: What about the GSH [2] of the same molecule?
A: 10.4 ± 2.0 nmol/10^6 cells

Q: And the GSH/GSSG [2]?
A: 35 ± 6

Q: And the GSR [2]?
A: 5.5 ± 1.2 mU/10^6 cells

Q: What about the GSS [2] of the same molecule?
A: 12.4 ± 2.7 mU/10^6 cells

Q: What about the GSSG [2] of the same molecule?
A: 0.3 ± 0.1 nmol/10^6 cells

Q: And the GST [2]?
A: 8.0 ± 1.5 mU/10^6 cells

Q: And the H2O2 [2]?
A: 1.4 ± 0.3 nmol/10^6 cells × min

Q: What about the IDH [2] of the same molecule?
A: 1.0 ± 0.3 U/10^6 cells

Q: And the ME [2]?
A: 55 ± 15 mU/10^6 cells

Q: What about the NADPH [2] of the same molecule?
A: 0.05 ± 0.02 nmol/mg prot

Q: What about the “NADPH/NADP^+” value [2] of the same molecule?
A: 1.7 ± 0.4

Q: And the “NADP^+” value [2]?
A: 0.03 ± 0.01 nmol/mg prot

Q: What about the NOX [2] of the same molecule?
A: 115 ± 33 R.L.U./10^6 cells

Q: What about the “O2′−” value [2] of the same molecule?
A: 8.4 ± 2.4 ΔFL1, a.u.

Q: What about the SOD1 [2] of the same molecule?
A: 0.2 ± 0.05 U/10^6 cells

Q: And the SOD2 [2]?
A: 0.05 ± 0.02 U/10^6 cells

Q: What about the TXN [2] of the same molecule?
A: 0.3 ± 0.15 μg/10^6 cells

Q: What about the TXNRD [2] of the same molecule?
A: 0.7 ± 0.2 U/10^6 cells
